Experimental data from patent US20250228814A1, “COMBINATION THERAPIES FOR THE TREATMENT OF VIRAL INFECTIONS” (Flagship Pioneering Innovations VI, LLC, priority 2022, published 2025).
Like-named read-outs stand apart in the source and are kept apart here.

Legend:
SARS-CoV-2 [1] = settings: for Cell viability: ginkgetin 0 μM, 72 h, normalized to remdesivir 5 μM alone
SARS-CoV-2 [2] = assay: microbe, parasite or virus in culture
SARS-CoV-2 [3] = format: cell-based; settings: remdesivir alone, dose-dependent (FIG. 1)
[4] = system: SARS-CoV-2 virus [B.1.351]; format: in vivo, mice; settings: in words
[5] = Severe acute respiratory syndrome coronavirus 2, Vero C1008, 72 h, read-out: Cell viability
[6] = Severe acute respiratory syndrome coronavirus 2, Vero C1008, read-out: host cell viability

SMILES: COc1cc(O)c2c(=O)cc(-c3ccc(OC)c(-c4c(O)cc(O)c5c(=O)cc(-c6ccc(O)cc6)oc45)c3)oc2c1 [Ginkgetin]
- viability (SARS-CoV-2 [1]; 1.5625-6.25 μM of ginkgetin alone): 18-24%
- host cell viability (SARS-CoV-2 [1]; ginkgetin (25-50 μM) alone, in words): modest improvements in host cell viability
- viability at 1.563 µM (SARS-CoV-2 [2]; [5]): 18.4%
- viability at 3.125 µM (SARS-CoV-2 [2]; [5]): 17.1%
- viability at 6.25 µM (SARS-CoV-2 [2]; [5]): 24.5%
- viability at 12.5 µM (SARS-CoV-2 [2]; [5]): 46.5%
- viability at 25 µM (SARS-CoV-2 [2]; [5]): 42.6%
- viability at 50 µM (SARS-CoV-2 [2]; [5]): 32.3%
- viability at 100 µM (SARS-CoV-2 [2]; [5]): 40.4%
- viability at 100 µM (SARS-CoV-2 [2]; [6]): ≤ 40%

SMILES: CCC(CC)COC(=O)[C@H](C)N[P@](=O)(OC[C@H]1O[C@@](C#N)(c2ccc3c(N)ncnn23)[C@H](O)[C@@H]1O)Oc1ccccc1 [Remdesivir]
- viral titers of SARS-CoV-2 (SARS-CoV-2 [3]): zero
- infectious titers in lung ([4]; remdesivir 25 mg/kg intraperitoneally daily, day 4 post infection): strongest antiviral effect in reducing infectious titer
- infectious titers in lung ([4]; remdesivir 5, 10 or 25 mg/kg intraperitoneally daily from day 1 post infection, day 4 post infection (FIG. 2)): dose-dependent effect on reducing infectious titers
- Cell viability (SARS-CoV-2 [1]; remdesivir 0.3125 μM): 22.2%
- Cell viability (SARS-CoV-2 [1]; remdesivir 0.625 μM): 23.2%
- Cell viability (SARS-CoV-2 [1]; remdesivir 1.25 μM): 28.1%
- Cell viability (SARS-CoV-2 [1]; remdesivir 2.5 μM): 37.6%
- host cell viability of SARS-CoV-2-infected Vero E6 cells (SARS-CoV-2 [1]; remdesivir (5 μM) alone, in words): dose-dependently improved host cell viability
- viability at 5 µM (SARS-CoV-2 [2]; [5]): 100%
- viability at 1.25 µM (SARS-CoV-2 [2]; [6]): 29%
- viability at 2.5 µM (SARS-CoV-2 [2]; [6]): 39%
